Here are results for 26 compounds from patent US8377943B2, “2,4-diaminopyrimidine derivates as PTK2-inhibitors for the treatment of abnormal cell growth” (Boehringer Ingelheim International GmbH, priority 2008, dated 2013).

The target in one experiment is T1, PTK2 (Homo sapiens, UniProt Q05397).
T1 construct: purchased Invitrogen PV3832
The experiment is described as follows: PTK2 Enzyme Test (DELFIA assay, poly-Glu-Tyr substrate). The conditions noted are these: active PTK2 enzyme, 50 μM ATP in ATP Mix, 1 h pre-incubation. It counts as biochemical. On the procedure: This test uses active PTK2 enzyme (Invitrogen Code PV3832) and poly-Glu-Tyr (4:1, Sigma P-0275) as the kinase substrate. The kinase activity is detected by means of the phosphorylation of the substrate in a DELFIA™ assay. The phosphorylated substrate is detected with the Europium-labelled phosphotyrosine antibody PY20 (Perkin Elmer, No.: AD0038).
In order to determine concentration-activity curves with PTK2-inhibitors the compounds are serially diluted in 10% DMSO/H2O and 10 μL of each dilution are dispensed per well in a 96-well microtitre plate (clear U-shaped base plate, Greiner No. 650101) (the inhibitors are tested in duplicates) and mixed with 10 μL/well of PTK2 kinase (0.01 μg/well). PTK2 kinase is diluted accordingly beforehand with kinase dilution buffer (20 mM TRIS/HCl pH 7.5, 0.1 mM EDTA, 0.1 mM EGTA, 0.286 mM sodium orthovanadate, 10% glycerol with the addition of freshly prepared BSA (fraction V 1 mg/mL) and DTT (1 mM)). The test compound and the PTK2 kinase are pre-incubated for 1 h at RT and shaken at 500 rpm. Then 20 μL ATP Mix (30 mM TRIS/HCl pH 7.5, 0.02% Brij, 0.2 mM sodium orthovanadate, 10 mM magnesium acetate, 0.1 mM EGTA, 1× Phosphatase Inhibitor Cocktail 1 (Sigma, No.: P2850), 50 μM ATP (Sigma, No.: A3377; 15 mM stock solution)) are added. The reaction is started by the addition of 10 μL/well of poly (Glu,Tyr) substrate (25 μg/well poly (Glu,Tyr), 0.05 μg/well biotinylated poly (Glu,Tyr) dissolved in 250 mM TRIS/HCl pH 7.5, 9 mM DTT)—the final concentration of DMSO is 2%. After 1 h kinase reaction (the plates are shaken at 500 rpm), the reaction is stopped by the addition of 12 μL/well of 100 mM EDTA, pH 8. And shaken for a further 5 min at RT (500 U/min).
55 μL of the reaction mixture are transferred into a streptavidin plate (Strepta Well High Bind (transparent, 96-well) made by Roche, No.: 11989685001) and incubated for 1 h at RT (shaking at 500 rpm). Then the microtitre plate is washed three times with 200 μL/well D-PBS (Invitrogen, No.:14190). 100 μL of 1:2000 diluted DELFIA Eu-N1 Anti-Phosphotyrosine PY20 antibody (Perkin Elmer, No.: AD0038, 1:2000 diluted in DELFIA test buffer (Perkin Elmer, No.: 1244-111)) is then added and it is incubated for 1 h at RT (shaking at 500 rpm). Then the plate is washed three times with 200 μL/well DELFIA washing buffer (Perkin Elmer, No.: 1244-114), 200 μL/well strengthening solution (Perkin Elmer, No.: 1244-105) is added and the whole is incubated for 10 min at RT (shaking at 300 rpm).
The time-delayed europium fluorescence is then measured in a microtitre plate reader (Victor, Perkin Elmer). The positive control consists of wells that contain solvent (2% DMSO in test buffer) and display uninhibited kinase activity. Wells that contain test buffer instead of enzyme act as a control for the background kinase activity.
The IC50 values are determined from concentration-activity analyses by iterative calculation using a sigmoidal curve analysis algorithm (FIFTY, based on GraphPAD Prism Version 3.03) with a variable Hill coefficient.

Experiment [1] addresses T2, PTK2-phosphorylation at tyrosine 397 (pY397) (Homo sapiens, UniProt Q05397).
T2 construct: endogenous in cells; host or cells: PC-3 (ATCC CRL-1435)
The experiment can be described thus: Phospho-PTK2 (pY397) Assay in PC-3 cells. It counts as cell-based. The settings on record: PC-3 prostate carcinoma cells, 2 h incubation; read-out: PC3pPTK2 Y397 EC50. How it is done: This cellular test is used to determine the influence of PTK2-inhibitors on the state of the PTK2-phosphorylation at tyrosine 397 (pY397).
PC-3 cells (prostate carcinoma, ATCC CRL-1435) are grown in cell culture flasks (175 cm^2) with F12 Kaighn's Medium (Gibco, No.: 21127) with the addition of 10% foetal calf serum (Invitrogen, No.: 16000-044). The cultures are incubated in the incubator at 37° C. and 5% CO2 and run twice a week.
For the test, 2×10^4 cells pro well/[…] are plated out in 96-well microtitre plates (Costar, No.: 3598) and incubated overnight in the incubator at 37° C. and 5% CO2. The test compounds (10 μL from serial dilution) are added the next day. The concentration of the test compounds usually covers a range of 50 μM and 0.8 nM. The test compounds (stock solution: 10 mM in 100% DMSO) are diluted in medium/medium 10% DMSO such that the final concentration is 1% DMSO. The cells are then incubated in the incubator at 37° C. and 5% CO2 for 2 h. Then the culture supernatant is removed and the cells are fixed with 150 μL 4% formaldehyde in D-PBS for 20 min at RT. The cell lawn is washed five times with 200 μL 0.1% Triton X-100 in D-PBS for 5 min in each case and then incubated for 90 min with blocking buffer (5% skimmed milk powder (Maresi Fixmilch) in TBST (25 mM Tris/HCl, pH 8.0, 150 mM NaCl, 0.05% Tween 20). The blocking buffer is replaced by 50 μL of the first antibody anti-phospho PTK2 [pY397] rabbit monoclonal (Invitrogen/Biosource, No.: 44-625G), which is diluted 1:200 in blocking buffer. For control purposes, alternatively a PTK2 [total] antibody (clone 4.47 mouse monoclonal, Upstate, No.: 05-537), diluted 1:400 in blocking buffer is used. This incubation is carried out at 4° C. overnight. Then the cell lawn is washed five times with 100 μL of 0.1% Tween in D-PBS for 5 min in each case and 50 μL/well of second antibody are added. In order to detect bound phospho-PTK2 [pY397] antibody a goat-anti-rabbit antibody is used which is coupled with horseradish peroxidase (Dako, No.: P0448; 1:500 dilution in blocking buffer). In order to detect bound PTK2 [total]-antibodies a rabbit-anti-mouse antibody is used, which is also coupled with horseradish peroxidase (Dako, No.: PO161; 1:1000 dilution in blocking buffer). This incubation is carried out for 1 h at RT with gentle shaking. The cell lawn is then again washed five times with 100 μL of 0.1% Tween in D-PBS for 5 min in each case. […] The EC50 values are determined from concentration-activity analyses by iterative calculation with the aid of a sigmoidal curve analysis algorithm (FIFTY, based on GraphPAD Prism Version 3.03) with a variable Hill coefficient.

T1 sequence (Q05397 whole entry): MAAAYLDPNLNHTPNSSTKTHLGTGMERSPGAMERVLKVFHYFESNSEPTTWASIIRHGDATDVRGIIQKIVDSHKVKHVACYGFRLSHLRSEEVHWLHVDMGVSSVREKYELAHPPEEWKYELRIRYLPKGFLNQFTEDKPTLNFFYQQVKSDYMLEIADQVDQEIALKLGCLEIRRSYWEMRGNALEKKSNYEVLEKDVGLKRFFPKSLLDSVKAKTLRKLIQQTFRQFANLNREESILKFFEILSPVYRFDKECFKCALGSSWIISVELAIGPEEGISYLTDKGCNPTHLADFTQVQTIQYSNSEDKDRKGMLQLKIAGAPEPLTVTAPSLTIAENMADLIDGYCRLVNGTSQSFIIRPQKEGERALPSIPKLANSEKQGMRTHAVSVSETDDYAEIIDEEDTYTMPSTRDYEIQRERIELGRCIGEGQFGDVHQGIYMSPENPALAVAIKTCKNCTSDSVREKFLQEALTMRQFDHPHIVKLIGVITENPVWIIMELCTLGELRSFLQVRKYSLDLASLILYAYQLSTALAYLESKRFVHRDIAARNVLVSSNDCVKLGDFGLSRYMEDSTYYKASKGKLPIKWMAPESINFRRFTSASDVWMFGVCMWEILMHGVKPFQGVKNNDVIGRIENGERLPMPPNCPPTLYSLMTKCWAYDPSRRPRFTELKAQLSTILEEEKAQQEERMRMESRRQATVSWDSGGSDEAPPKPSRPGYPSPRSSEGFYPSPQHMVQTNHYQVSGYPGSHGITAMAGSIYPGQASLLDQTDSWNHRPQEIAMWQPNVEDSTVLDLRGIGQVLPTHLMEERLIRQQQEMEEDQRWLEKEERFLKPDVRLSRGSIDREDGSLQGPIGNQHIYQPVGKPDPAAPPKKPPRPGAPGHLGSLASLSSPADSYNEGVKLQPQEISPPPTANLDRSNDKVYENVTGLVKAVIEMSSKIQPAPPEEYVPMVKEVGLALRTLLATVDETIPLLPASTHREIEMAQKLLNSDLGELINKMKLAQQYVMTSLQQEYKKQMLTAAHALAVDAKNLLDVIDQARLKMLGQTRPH
T2 sequence (Q05397 whole entry): as above

As to `COc1cc(C(=O)NC2CCN(C3CCCCC3)CC2)ccc1Nc1ncc(C(F)(F)F)c(NCc2ccc(C)cc2N(C)S(C)(=O)=O)n1` [Example 16], on PTK2, 4 nM corresponded to half-maximal inhibition (IC50). In experiment [1], the EC50 (usually the concentration giving half of the maximal effect) was determined as 0.19 nM.
Taken in the same sequence, the figures for `CCN1CCC[C@@H](NC(=O)c2ccc(Nc3ncc(C(F)(F)F)c(NCc4ccc(C)cc4N(C)S(C)(=O)=O)n3)c(OC)c2)C1` [Example 17] were 2 nM and 0.19 nM.
For `COc1cc(C(=O)NC2CCN(CC(F)F)CC2)ccc1Nc1ncc(C(F)(F)F)c(NCc2ccc(C)cc2N(C)S(C)(=O)=O)n1` [Example 18], on PTK2, 3 nM corresponded to half-maximal inhibition (IC50). The EC50 in experiment [1] turned out to be 0.2 nM.
Taken in the same sequence, the figures for `COc1cc(C(=O)N[C@@H]2CCN(C)C[C@H]2F)c(F)cc1Nc1ncc(C(F)(F)F)c(NCc2ccc(C)cc2N(C)S(C)(=O)=O)n1` [Example 19] were 3 nM and 0.2 nM.
For `COc1cc(C(=O)NCCN2CCCCC2)ccc1Nc1ncc(C(F)(F)F)c(NCc2ccc(C)cc2N(C)S(C)(=O)=O)n1` [Example 20], the IC50 (as a rule, the concentration needed to halve the response being measured) at PTK2 came out at 2 nM. Also, the EC50 in experiment [1] stood at 0.22 nM.
The corresponding values for `CCOCCNC(=O)c1ccc(Nc2ncc(C(F)(F)F)c(NCc3ccc(C)cc3N(C)S(C)(=O)=O)n2)c(OC)c1` [Example 21] are 5 nM and 0.22 nM.
Consider `COc1cc(C(=O)N[C@H]2CCN(C)C[C@H]2F)c(F)cc1Nc1ncc(C(F)(F)F)c(NCc2ccc(C)cc2N(C)S(C)(=O)=O)n1` [Example 22], for which the IC50 against PTK2 turned out to be 3 nM. Besides, the EC50 in experiment [1] came to 0.22 nM.
As to `COc1cc(C(=O)N[C@H]2CCN(C)C2)c(F)cc1Nc1ncc(C(F)(F)F)c(NCc2ccc(C)cc2N(C)S(C)(=O)=O)n1` [Example 23], on PTK2, 1 nM corresponded to half-maximal inhibition (IC50). Moreover, the concentration for a half-maximal effect (EC50) in experiment [1] is 0.23 nM.
Taken in the same sequence, the figures for `COc1cc(C(=O)N[C@@H]2CCN(C)C[C@@H]2F)c(F)cc1Nc1ncc(C(F)(F)F)c(NCc2ccc(C)cc2N(C)S(C)(=O)=O)n1` [Example 24] were 3 nM and 0.23 nM.
The corresponding values for `CNCc1ccc(Nc2ncc(C(F)(F)F)c(NCc3ccc(C)cc3N(C)S(C)(=O)=O)n2)c(OC)c1` [Example 25] are 1 nM and 0.24 nM.
Taken in the same sequence, the figures for `COc1cc(C(=O)NC2CCC3C(CCN3C)C2)ccc1Nc1ncc(C(F)(F)F)c(NCc2ccc(C)cc2N(C)S(C)(=O)=O)n1` (stereo not shown) [Example 26] were 3 nM and 0.25 nM.
At PTK2, `COc1cc(C(=O)NC2CCC(NS(C)(=O)=O)CC2)ccc1Nc1ncc(C(F)(F)F)c(NCc2ccc(C)cc2N(C)S(C)(=O)=O)n1` (stereo not shown) [Example 27] returned a 50% inhibitory concentration (IC50) of 4 nM. For the same compound, the half-maximal effective concentration (EC50) in experiment [1] was 0.27 nM.
The corresponding values for `COc1cc(C(=O)N[C@H]2CN3CCC2CC3)ccc1Nc1ncc(C(F)(F)F)c(NCc2ccc(C)cc2N(C)S(C)(=O)=O)n1` [Example 28] are 4 nM and 0.27 nM.
Take `COc1ccc(CNc2nc(Nc3cc(F)c(C(=O)N[C@H]4CCN(C)C4)cc3OC)ncc2C(F)(F)F)c(N(C)S(C)(=O)=O)c1` [Example 29]: at PTK2, inhibition was half-maximal at 2 nM (IC50). In experiment [1], the EC50 was 0.29 nM.
The corresponding values for `COc1cc(C(=O)NC2CCN(CC3CC3)CC2)ccc1Nc1ncc(C(F)(F)F)c(NCc2ccc(C)cc2N(C)S(C)(=O)=O)n1` [Example 30] are 4 nM and 0.29 nM.
The corresponding values for `COc1cc(C(=O)NC2CCC(N(C)C(C)C)CC2)ccc1Nc1ncc(C(F)(F)F)c(NCc2ccc(C)cc2N(C)S(C)(=O)=O)n1` (stereo not shown) [Example 31] are 1 nM and 0.29 nM.
Compound `COc1cc(N2CCN(C3COC3)CC2)ccc1Nc1ncc(C(F)(F)F)c(NCc2ccc(C)cc2N(C)S(C)(=O)=O)n1` [Example 32] showed a 50% inhibitory concentration (IC50) on PTK2 of 4 nM. In addition, the EC50 in experiment [1] was 0.3 nM.
`COc1cc(N2CCN(CC(=O)N(C)C)CC2)ccc1Nc1ncc(C(F)(F)F)c(NCc2ccc(C)cc2N(C)S(C)(=O)=O)n1` [Example 33] yielded a 50% inhibitory concentration (IC50) against PTK2 of 2 nM. The EC50 in experiment [1] was found to be 0.3 nM.
In the case of `COc1cc(C(N)=O)c(Br)cc1Nc1ncc(C(F)(F)F)c(NCc2ccc(C)cc2N(C)S(C)(=O)=O)n1` [Example 34], half-maximal inhibition on PTK2 (IC50) was put at 3 nM. Besides, in experiment [1], the concentration giving a half-maximal response (EC50) amounted to 0.31 nM.
The corresponding values for `COc1cc(CNC2CCOCC2)ccc1Nc1ncc(C(F)(F)F)c(NCc2ccc(C)cc2N(C)S(C)(=O)=O)n1` [Example 35] are 3 nM and 0.31 nM.
With `COc1cc(C(=O)N[C@@H]2CCN(C)C2)c(F)cc1Nc1ncc(C(F)(F)F)c(NCc2ccc(C)cc2N(C)S(C)(=O)=O)n1` [Example 36], it took 2 nM to reach half-maximal inhibition against PTK2 (IC50). The EC50 in experiment [1] was found to be 0.32 nM.
In turn, `COc1cc(C(=O)NC2CCN(C3CC3)CC2)ccc1Nc1ncc(C(F)(F)F)c(NCc2ccc(C)cc2N(C)S(C)(=O)=O)n1` [Example 38] displayed a 50% inhibitory concentration (IC50) on PTK2 of 4 nM. Moreover, the EC50 in experiment [1] was found to be 0.35 nM.
For `COc1ccc(CNc2nc(Nc3cc(F)c(C(=O)NC4CCN(C)CC4)cc3OC)ncc2C(F)(F)F)c(N(C)S(C)(=O)=O)c1` [Example 40], half-maximal inhibition on PTK2 (IC50) was put at 1 nM. Moreover, the EC50 in experiment [1] is 0.37 nM.
On PTK2, `COc1ccc(CNc2nc(Nc3cc(F)c(C(=O)N[C@@H]4CCN(C)C4)cc3OC)ncc2C(F)(F)F)c(N(C)S(C)(=O)=O)c1` [Example 41] gave an IC50 of 2 nM. Further, in experiment [1], the 50% effective concentration (EC50) was 0.39 nM.
As for `COc1cc(N2CCN(CC(=O)N3CCOCC3)CC2)ccc1Nc1ncc(C(F)(F)F)c(NCc2ccc(C)cc2N(C)S(C)(=O)=O)n1` [Example 42], the IC50 on PTK2 came to 4 nM. Also, the concentration giving a half-maximal response (EC50) in experiment [1] was determined as 0.39 nM.
Taken in the same sequence, the figures for `COc1cc(C(=O)NC2CCN(C)CC2)c(F)cc1Nc1ncc(C(F)(F)F)c(NCc2ccc(C)cc2N(C)S(C)(=O)=O)n1` [Example 43] were 2 nM and 0.4 nM.
